Measured values from patent US20250230147A1, “LACTAMS AS CBL-B INHIBITORS” (Genentech, Inc., priority 2021, published 2025).
Where a name gives a salt, the structure may show the parent alone.

Tests used:
Cbl-b = Cbl-b (Homo sapiens (Human), UniProt Q13191); assay: Cbl-b LCK Ub TR-FRET assay (Cbl-b Lck HTRF); type: biochemical
Summary of the method: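 TR-FRET (340 nm excitation, 615/665 nm emission) read after adding HA-ubiquitin–UBE2D2 thioester, anti-HA-D2 and streptavidin-Eu. Beforehand, compounds incubated 60 min with biotinylated Cbl-b, then 90 min with His-LCK and ATP (1 mM in 2× mix); IC50 from 10 concentrations, DMSO high and no-LCK low controls.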

c-Cbl = c-Cbl (Homo sapiens (Human), UniProt P22681); assay: C-Cbl LCK Ub TR-FRET assay (c-cbl Lck HTRF); type: biochemical; conditions: for (fold-selectivity): C-cbl Lck HTRF IC50 relative to Cbl-b Lck HTRF IC50
Summary of the method: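 After the ubiquitination reaction, detection mixture was added and plates incubated 20 min at room temperature before reading. IC50 values were calculated with wells lacking LCK as the low control and DMSO as the high control.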

c-Cbl, sequence (P22681 47-435): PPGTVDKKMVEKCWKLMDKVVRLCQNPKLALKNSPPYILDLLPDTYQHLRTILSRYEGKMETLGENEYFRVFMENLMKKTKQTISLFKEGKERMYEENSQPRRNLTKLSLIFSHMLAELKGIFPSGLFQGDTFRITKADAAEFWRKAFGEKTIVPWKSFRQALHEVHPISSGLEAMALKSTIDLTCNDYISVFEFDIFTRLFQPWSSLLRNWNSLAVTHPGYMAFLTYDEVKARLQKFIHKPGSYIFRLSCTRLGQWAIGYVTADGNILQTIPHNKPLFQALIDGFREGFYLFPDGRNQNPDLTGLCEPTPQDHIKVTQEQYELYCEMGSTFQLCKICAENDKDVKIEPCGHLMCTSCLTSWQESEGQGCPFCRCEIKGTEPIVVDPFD
Cbl-b, sequence (Q13191 40-426): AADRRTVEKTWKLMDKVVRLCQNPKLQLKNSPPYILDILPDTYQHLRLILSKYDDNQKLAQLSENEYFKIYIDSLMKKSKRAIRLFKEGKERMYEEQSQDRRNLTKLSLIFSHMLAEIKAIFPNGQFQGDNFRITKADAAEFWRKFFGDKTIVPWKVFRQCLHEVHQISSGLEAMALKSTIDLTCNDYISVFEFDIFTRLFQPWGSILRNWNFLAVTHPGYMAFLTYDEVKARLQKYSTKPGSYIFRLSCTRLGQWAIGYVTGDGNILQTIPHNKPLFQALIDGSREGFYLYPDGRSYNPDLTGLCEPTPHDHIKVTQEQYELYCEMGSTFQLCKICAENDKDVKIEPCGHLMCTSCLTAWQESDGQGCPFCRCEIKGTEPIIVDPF

SMILES	IC50 (Cbl-b) [nM]	IC50 (c-Cbl) [nM]	(fold-selectivity) (c-Cbl)	fold of selectivity (Cbl-b; Cbl-b over c-Cbl, Lck HTRF IC50) [x]
Cn1cnnc1[C@H](F)C1(c2cccc(N3Cc4c(cc([C@@H](N)CC5CC5)cc4C(F)(F)F)C3=O)c2)COC1 [Compound 389, 6-((S)-1-amino-2-cyclopropylethyl)-2-(3-(3-((R)-fluoro(4-methyl-4H-1,2,4-triazol-3-yl)methyl)oxetan-3-yl)phenyl)-4-(trifluoromethyl)isoindolin-1-one]	9.6	14	(1.4x)	
C[C@H](N)c1cc2c(c(C(F)(F)F)c1)CN(c1cccc(C3([C@@H](F)c4nncn4C)COC3)c1)C2=O [Compound 192, 6-((S)-1-aminoethyl)-2-(3-(3-((R)-fluoro(4-methyl-4H-1,2,4-triazol-3-yl)methyl)oxetan-3-yl)phenyl)-4-(trifluoromethyl)isoindolin-1-one]	32	53	1.6x	
Cn1cnnc1CC1(c2cccc(N3Cc4c(cc(CNCC5CC5)cc4C(F)(F)F)C3=O)c2)CC(F)(F)C1 [Compound 334, 6-(((cyclopropylmethyl)amino)methyl)-2-(3-(3,3-difluoro-1-((4-methyl-4H-1,2,4-triazol-3-yl)methyl)cyclobutyl)phenyl)-4-(trifluoromethyl)isoindolin-1-one]	11	8.1	(0.72) x	
Cn1cnnc1CC1(c2cc(CC3CCCC3)nc(N3Cc4c(cccc4C(F)(F)F)C3=O)c2)COC1 [Compound 292, 2-(6-(cyclopentylmethyl)-4-(3-((4-methyl-4H-1,2,4-triazol-3-yl)methyl)oxetan-3-yl)pyridin-2-yl)-4-(trifluoromethyl)isoindolin-1-one]	3400	5100	(1.5x)	
CN1CCN(Cc2cc3c(c(C(F)(F)F)c2)CN(c2cccc(C4(Cc5nncn5C)CC(F)(F)C4)c2)C3=O)C(=O)C1 [Compound 444, 2-(3-(3,3-difluoro-1-((4-methyl-4H-1,2,4-triazol-3-yl)methyl)cyclobutyl)phenyl)-6-((4-methyl-2-oxopiperazin-1-yl)methyl)-4-(trifluoromethyl)isoindolin-1-one]	170	180	(1.1x)	
Cn1cnnc1[C@@H](F)C1(c2cccc(N3Cc4c(cc(CN5CC(CCO)C5)cc4C(F)(F)F)C3=O)c2)COC1 [Compound 178, (S)-2-(3-(3-(fluoro(4-methyl-4H-1,2,4-triazol-3-yl)methyl)oxetan-3-yl)phenyl)-6-((3-(2-hydroxyethyl)azetidin-1-yl)methyl)-4-(trifluoromethyl)isoindolin-1-one]	170	350	2.0x	
Cn1cnnc1CC1(c2cc(OC3CCCC3)cc(N3Cc4c(cc(CNC5(C)CCC5)cc4C(F)(F)F)C3=O)c2)COC1 [Compound 479, 2-(3-(cyclopentyloxy)-5-(3-((4-methyl-4H-1,2,4-triazol-3-yl)methyl)oxetan-3-yl)phenyl)-6-(((1-methylcyclobutyl)amino)methyl)-4-(trifluoromethyl)isoindolin-1-one]	180	290	(1.6x)	
COC(C)(C)CNCc1cc2c(c(C(F)(F)F)c1)CN(c1cccc(C3(Cc4nncn4C)CC(F)(F)C3)c1)C2=O [Compound 373, 2-(3-(3,3-difluoro-1-((4-methy-4H-1,2,4-triazol-3-yl)methyl)cyclobutyl)phenyl)-6-(((2-methoxy-2-methylpropyl)amino)methyl)-4-(trifluoromethyl)isoindolin-1-one]	20	25	(1.3x)	
CC(C)[C@H]1CN(C2COC2)CCN1Cc1cc2c(c(C(F)(F)F)c1)CN(c1cccc(C3([C@H](F)c4nncn4C)COC3)c1)C2=O [Compound 199, 2-(3-(3-((S)-fluoro(4-methyl-4H-1,2,4-triazol-3-yl)methyl)oxetan-3-yl)phenyl)-6-(((S)-2-isopropyl-4-(oxetan-3-yl)piperazin-1-yl)methyl)-4-(trifluoromethyl)isoindolin-1-one]	19	56	2.9x	
CC(C)[C@H]1CN(Cc2cc3c(c(C(F)(F)F)c2)CN(c2cccc(C4(Cc5nncn5C)CC(F)(F)C4)c2)C3=O)CCN1C [Compound 439, (S)-2-(3-(3,3-difluoro-1-((4-methyl-4H-1,2,4-triazol-3-yl)methyl)cyclobutyl)phenyl)-6-((3-isopropyl-4-methylpiperazin-1-yl)methyl)-4-(trifluoromethyl)isoindolin-1-one]	12	7.1	(0.58x)	
Cn1cnnc1[C@H](F)C1(c2cccc(N3Cc4c(cc(CN5CC(C)(O)C5)cc4C(F)(F)F)C3=O)c2)CC1 (single isomer, unassigned) [Compound 30]	65	91	1.4x	
Cn1cnnc1[C@H](F)C1(c2cccc(N3Cc4c(cc(CN)cc4C(F)(F)F)C3=O)c2)CC(F)(F)C1.O=CO [Compound 393, (R)-6-(aminomethyl)-2-(3-(3,3-difluoro-1-(fluoro(4-methyl-4H-1,2,4-triazol-3-yl)methyl)cyclobutyl)phenyl)-4-(trifluoromethyl)isoindolin-1-one formate]	130	170	(1.3x)	
CCC1(O)CN(Cc2cc3c(c(C(F)(F)F)c2)CN(c2cccc(C4([C@@H](F)c5nncn5C)COC4)c2)C3=O)C1 [Compound 167, (R)-6-((3-ethyl-3-hydroxyazetidin-1-yl)methyl)-2-(3-(3-(fluoro(4-methyl-4H-1,2,4-triazol-3-yl)methyl)oxetan-3-yl)phenyl)-4-(trifluoromethyl)isoindolin-1-one]	59	150	2.5x	
Cn1cnnc1[C@@H](F)C1(c2cccc(N3Cc4c(cc(CN5CCC6(CC6)C5)cc4C(F)(F)F)C3=O)c2)CC1 [Compound 28, (S)-6-(5-azaspiro[2.4]heptan-5-ylmethyl)-2-(3-(1-(fluoro(4-methyl-4H-1,2,4-triazol-3-yl)methyl)cyclopropyl)phenyl)-4-(trifluoromethyl)isoindolin-1-one]	80	180	2.2x	
Cn1cnnc1[C@H](F)C1(c2cccc(N3Cc4c(cc(CN5CC(C)(O)C5)cc4C(F)(F)F)C3=O)c2)CC(F)(F)C1 [Compound 51, (R)-2-(3-(3,3-difluoro-1-(fluoro(4-methyl-4H-1,2,4-triazol-3-yl)methyl)cyclobutyl)-phenyl)-6-((3-hydroxy-3-methylazetidin-1-yl)methyl)-4-(trifluoromethyl)isoindolin-1-one]	62	150	2.4x	
COC[C@H]1CCCN1Cc1cc2c(c(C(F)(F)F)c1)CN(c1cccc(C3([C@H](F)c4nncn4C)COC3)c1)C2=O [Compound 156, 2-(3-(3-((S)-fluoro(4-methyl-4H-1,2,4-triazol-3-yl)methyl)oxetan-3-yl)phenyl)-6-(((R)-2-(methoxymethyl)pyrrolidin-1-yl)methyl)-4-(trifluoromethyl)isoindolin-1-one]	920	5200	5.6x	5.6
Cn1cnnc1[C@H](F)C1(c2cccc(N3Cc4c(cc(Oc5cn[nH]c5)cc4C(F)(F)F)C3=O)c2)COC1 [Compound 116, (R)-6-((1H-pyrazol-4-yl)oxy)-2-(3-(3-(fluoro(4-methyl-4H-1,2,4-triazol-3-yl)methyl)oxetan-3-yl)phenyl)-4-(trifluoromethyl)isoindolin-1-one]	310	330	1.1x	
Cn1cnnc1CC1(c2cccc(N3Cc4c(cc(CNCC5(C)CC5)cc4C(F)(F)F)C3=O)c2)CC(F)(F)C1 [Compound 352, 2-(3-(3,3-difluoro-1-((4-methy-4H-1,2,4-triazol-3-yl)methyl)cyclobutyl)phenyl)-6-((((1-methylcyclopropyl)methyl)amino)methyl)-4-(trifluoromethyl)isoindolin-1-one formate]	12	6.7		
Cn1cnnc1[C@@H](F)C1(c2cccc(N3Cc4c(cc(CN5CC6CC5C6)cc4C(F)(F)F)C3=O)c2)COC1 [Compound 87, (S)-6-((2-azabicyclo[2.1.1]hexan-2-yl)methyl)-2-(3-(3-(fluoro(4-methyl-4H-1,2,4-triazol-3-yl)methyl)oxetan-3-yl)phenyl)-4-(trifluoromethyl)isoindolin-1-one]	1200	3100	2.6x	
Cn1cnnc1[C@H](F)C1(c2cccc(N3Cc4c(cc(CN5CCC5)cc4C(F)(F)F)C3=O)c2)CC(F)(F)C1 [Compound 397, (R)-6-(azetidin-1-ylmethyl)-2-(3-(3,3-difluoro-1-(fluoro(4-methyl-4H-1,2,4-triazol-3-yl)methyl)cyclobutyl)phenyl)-4-(trifluoromethyl)isoindolin-1-one]	150	150	(1.0x)	
Cn1cnnc1[C@H](F)C1(c2cccc(N3Cc4c(cc(CC5CNC5)cc4C(F)(F)F)C3=O)c2)COC1 [Compound 57, (R)-6-(azetidin-3-ylmethyl)-2-(3-(3-(fluoro(4-methyl-4H-1,2,4-triazol-3-yl)methyl)oxetan-3-yl)phenyl)-4-(trifluoromethyl)isoindolin-1-one]	49	67	1.4x	
